Reference: US12459931B2, “Benzothiophene derivative regulator, preparation method therefor and use thereof” (Shanghai Hansoh Biomedical Co., Ltd., priority 2019, dated 2025)

Assays:
[1] = target: Human Dopamine D3 Receptor (Homo sapiens (Human), UniProt P35462); experiment: Radioligand-receptor binding assay, dopamine D3 receptor ([3H]-methylspiperone); settings: [3H]-methylspiperone 0.5 nM, human D3 receptor membrane
Description: Determination of the Binding Ability of the Compounds of the Present Invention to Dopamine D3 Receptor
The objective of this test example is to determine the affinity of the compounds for dopamine D3 receptor.
Assay buffer: 50 mM Tris-HCl pH 7.4, 10 mM MgCl2; wash solution: 50 mM Tris-HCl pH 7.4, stored at 4° C.; 0.5% PEI solution: 0.5 g PEI dissolve in 100 mL ddH2O, 4° C. storage of spare.
(§1) 5 μL of the test compounds (0.005 nM to 100 nM, 10 concentrations in total) and 100 μL of buffer were added to a 96-well assay plate. 1 μL of cell membrane and 300 μL of buffer were added to each well, and the plate was shaken at 600 rpm for 5 min. A mixed solution of 100 μL of buffer and [^3H]-methylspiperone (the final concentration was 0.5 nM) was added to each well. The plate was shaken at 600 rpm for 5 min, and incubated at 27° C. for 30 min. The […]-96 GF/B filter plate pre-incubated with 0.5% PEI for 1 h was washed twice with the buffer (1 mL/well). The cell membrane suspension was added to the […]-96 GF/B filter plate, washed 4 times, and incubated at 55° C. for 10 min. 40 μL of ULTIMA GOLD was added to each well, and liquid scintillation counting was carried out.
(§2) The CPM (Counts per minute) values were determined by TopCount. […] The 10 concentrations of the compound were from 100 nM to 0.005 nM after 3-fold dilution of the reaction system. The percent inhibition rate and ten-point concentration data were fitted to the parametric nonlinear logistic equation by using GraphPad prism to calculate the IC50 values of the compound.

5-HT2A receptor = 5-HT2A receptor (Homo sapiens (Human), UniProt P28223); experiment: Radioligand-receptor binding assay, 5-HT2A receptor ([3H]-Ketanserin); settings: [3H]-Ketanserin 2 nM, human 5-HT2A receptor membrane; read-out: 5HT-2A binding activity IC50
5-HT2A receptor, sequence (P28223 whole entry): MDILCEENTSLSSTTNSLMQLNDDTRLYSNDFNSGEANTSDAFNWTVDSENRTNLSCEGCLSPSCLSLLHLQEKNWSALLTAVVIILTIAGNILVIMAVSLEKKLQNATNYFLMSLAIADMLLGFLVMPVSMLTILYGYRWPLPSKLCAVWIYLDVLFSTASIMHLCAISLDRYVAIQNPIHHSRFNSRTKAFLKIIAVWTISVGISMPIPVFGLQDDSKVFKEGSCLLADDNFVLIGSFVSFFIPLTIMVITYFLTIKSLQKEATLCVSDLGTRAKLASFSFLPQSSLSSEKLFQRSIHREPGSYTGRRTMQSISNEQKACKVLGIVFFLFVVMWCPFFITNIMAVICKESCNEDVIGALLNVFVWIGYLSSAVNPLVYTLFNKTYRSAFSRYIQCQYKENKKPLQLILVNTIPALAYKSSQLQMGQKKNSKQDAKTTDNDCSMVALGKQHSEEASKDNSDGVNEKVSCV
Description: Determination of the Binding Ability of the Compounds of the Present Invention to 5-HT2A Receptor
The objective of this test example is to determine the affinity of the compounds for 5-HT2A receptor.
Assay buffer: 50 mM Tris-HCl pH 7.4, 4 mM CaCl2); wash solution: 50 mM Tris-HCl pH 7.4, stored at 4° C.; 0.5% PEI solution: 0.5 g PEI dissolve in 100 mL ddH2O, 4° C. storage of spare.
as §1, with “plate. 1.5” for “plate. 1”, “300 L” for “300 μL”, “each well. The” for “each well, and the”, “and [^3H]-Ketanserin” for “and [^3H]-methylspiperone”, “was 2” for “was 0.5”
as §2

Human Dopamine D3 Receptor, sequence (P35462 whole entry): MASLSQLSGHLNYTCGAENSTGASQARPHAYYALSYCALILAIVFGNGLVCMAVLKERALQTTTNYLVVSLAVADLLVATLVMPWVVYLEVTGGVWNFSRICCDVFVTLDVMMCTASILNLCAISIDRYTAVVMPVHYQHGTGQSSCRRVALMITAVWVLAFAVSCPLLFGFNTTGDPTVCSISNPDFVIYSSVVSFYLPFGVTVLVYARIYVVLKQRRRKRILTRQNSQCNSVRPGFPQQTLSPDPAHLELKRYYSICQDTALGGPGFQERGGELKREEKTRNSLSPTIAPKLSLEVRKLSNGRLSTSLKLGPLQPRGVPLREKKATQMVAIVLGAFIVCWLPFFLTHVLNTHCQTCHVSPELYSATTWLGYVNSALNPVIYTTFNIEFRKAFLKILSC

SMILES | IC50 [1] | IC50 (5-HT2A receptor)
CC1(O)CN(C(=O)N[C@H]2CC[C@H](CCN3CCN(c4cccc5sccc45)CC3)CC2)C1 [Example 3, N-(Trans-4-(2-(4-(benzo[b]thiophen-4-yl)piperazin-1-yl)ethyl)cyclohexyl)-3-hydroxy-3-methylazetidine-1-carboxamide] | 1.59 nM | 
CON(C)C(=O)N[C@H]1CC[C@H](CCN2CCN(c3cccc4sccc34)CC2)CC1 [Example 50, 3-(Trans-4-(2-(4-(benzo[b]thiophen-4-yl)piperazin-1-yl)ethyl)cyclohexyl)-1-methoxy-1-methylurea] | 1.29 nM | 2.16 nM
Fc1cnc(N[C@H]2CC[C@H](CCN3CCN(c4cccc5sccc45)CC3)CC2)nc1 [Example 49, N-(Trans-4-(2-(4-(benzo[b]thiophen-4-yl)piperazin-1-yl)ethyl)cyclohexyl)-5-fluoropyrimidin-2-amine] | 2.43 nM | 0.34 nM
COC1(C)CN(C(=O)N[C@H]2CC[C@H](CCN3CCN(c4cccc5sccc45)CC3)CC2)C1 [Example 4, N-(Trans-4-(2-(4-(benzo[b]thiophen-4-yl)piperazin-1-yl)ethyl)cyclohexyl)-3-methoxy-3-methylazetidine-1-carboxamide] | 1.52 nM | 0.26 nM
O=C(N[C@H]1CC[C@H](CCN2CCN(c3cccc4sccc34)CC2)CC1)c1ccco1 [Example 45, N-(Trans-4-(2-(4-(benzo[b]thiophen-4-yl)piperazin-1-yl)ethyl)cyclohexyl)furan-2-carboxamide] | 0.12 nM | 0.63 nM
Cc1ccc(C(=O)N[C@H]2CC[C@H](CCN3CCN(c4cccc5sccc45)CC3)CC2)o1 [Example 46, N-(Trans-4-(2-(4-(benzo[b]thiophen-4-yl)piperazin-1-yl)ethyl)cyclohexyl)-5-methylfuran-2-carboxamide] | 0.6 nM | 0.91 nM
COCC(=O)N[C@H]1CC[C@H](CCN2CCN(c3cccc4sccc34)CC2)CC1 [Example 47, N-(Trans-4-(2-(4-(benzo[b]thiophen-4-yl)piperazin-1-yl)ethyl)cyclohexyl)-2-methoxyacetamide] | 0.47 nM | 0.96 nM
C[C@@H]1CN(c2cccc3sccc23)CCN1CC[C@H]1CC[C@H](Nc2ncc(C#N)cn2)CC1 [Example 44, 2-((Trans-4-(2-((R)-4-(benzo[b]thiophen-4-yl)-2-methylpiperazin-1-yl)ethyl)cyclohexyl)amino)pyrimidine-5-carbonitrile] | 1.58 nM | 2.59 nM
CC(C)(O)CC(=O)N[C@H]1CC[C@H](CCN2CCN(c3cccc4sccc34)CC2)CC1 [Example 48, N-(Trans-4-(2-(4-(benzo[b]thiophen-4-yl)piperazin-1-yl)ethyl)cyclohexyl)-3-hydroxy-3-methylbutanamide] | 0.36 nM | 0.83 nM
O=C(NC1CCC(CCN2CCN(c3cccc4sccc34)CC2)CC1F)c1ccco1 (stereo not drawn) [Example 51, N-(4-(2-(4-(Benzo[b]thiophen-4-yl)piperazin-1-yl)ethyl)-2-fluorocyclohexyl)furan-2-carboxamide] | 0.76 nM | 0.9 nM
CN(C)C(=O)NC1CCC(CCN2CCN(c3cccc4sccc34)CC2)CC1F (stereo not drawn) [Example 23, 3-(4-(2-(4-(Benzo[b]thiophen-4-yl)piperazin-1-yl)ethyl)-2-fluorocyclohexyl)-1,1-dimethylurea] | 2.69 nM | 6.45 nM
O=C(N[C@H]1CC[C@H](CCN2CCN(c3cccc4sccc34)CC2)CC1)N1CC(F)(F)C1 [Example 2, N-(Trans-4-(2-(4-(benzo[b]thiophen-4-yl)piperazin-1-yl)ethyl)cyclohexyl)-3,3-difluoro azetidine-1-carboxamide] | 0.76 nM | 3.4 nM
CN(C)C(=O)N[C@H]1CC[C@](F)(CCN2CCN(c3cccc4sccc34)CC2)CC1 [Example 15, 3-(Cis-4-(2-(4-(benzo[b]thiophen-4-yl)piperazin-1-yl)ethyl)-4-fluorocyclohexyl)-1,1-dimethylurea] | 4.25 nM | 
